Counter-ions that a name gives are not always drawn.
Experiments:
[1] = system: conditioned avoidance response; test: conditioned avoidance response test (CAR), neuroleptic action; type: in vivo; settings: intraperitoneal, mg per kg body weight; for ED50: ip, read-out: CAR, ED50 (dose which caused a 50% failure in avoidance response)
[2] = system: tremorine-induced tremors in mice; test: antagonism of tremorine-induced tremors (ITIT), lack of cataleptic activity; type: in vivo; settings: intraperitoneal, mg per kg body weight; for ED50: Mus musculus, ip, read-out: ITIT, ED50 (dose which caused a 50% inhibition of tremorine induced tremors)
[3] = Sayers and Amsler 1977; cited from earlier work

Row | Compound | CAR, ED50 (dose which caused a 50% failure in avoidance response) [1] | ITIT, ED50 (dose which caused a 50% inhibition of tremorine induced tremors) [2] | ED50 [1] [mg/kg] | ED50 [2] [mg/kg] | neuroleptic action without the extrapyramidal side effects (in words) [3]
1 | Br.CC[C@H]1c2c(O)c(O)cc3c2[C@H](CN1C)c1ccccc1CC3 (relative stereo) [Example 23, (3,12b-trans)-3-ethyl-2-methyl-1,2,3,7,8,12b-hexahydrobenzo[6,7]cyclohepta[1,2,3-de]isoquinoline-4,5-diol hydrobromide] | 1.5 ± 0.4 mg/kg, i.p. | 18 ± 7.6 mg/kg, i.p. |  |  | 
2 | CC[C@H]1c2cc(O)c(O)c3c2[C@@H](CN1C)c1ccccc1CC3 (relative stereo) [Example 32, (3,12b-trans)-3-ethyl-2-methyl-1,2,3,7,8,12b-hexahydrobenzo[6,7]-cyclohepta[1,2,3-de]isoquinoline-5,6-diol hydrobromide] |  |  | 4.2 ± 0.4 | 21 ± 1.6 | 
3 | CN1C[C@H]2c3ccccc3CCc3c(O)c(O)cc(c32)[C@@H]1Cc1ccccc1 (relative stereo) [Example 33, (3,12b-trans)-2-methyl-3-(phenylmethyl)-1,2,3,7,8,12b-hexahydrobenzo[6,7]-cyclohepta[1,2,3-de]isoquinoline-5,6-diol hydrobromide] |  |  | 2 ± 0.2 | 9.2 ± 7.2 | 
4 | CC[C@H]1c2c(O)c(OC)cc3c2[C@@H](CN1C)c1ccccc1CC3 (relative stereo) [Example 44, (3,12b-trans)-3-ethyl-5-methoxy-2-methyl-1,2,3,7,8,12b-hexahydrobenzo[6,7]-cyclohepta[1,2,3-de]isoquinolin-4-ol] | 3.0 ± 0.8 mg/kg, i.p. | 6.8 ± 2.0 mg/kg, i.p. |  |  | 
5 | Br.CC1c2c(O)c(O)cc3c2C(CN1C)c1ccccc1CC3 (stereo not drawn) [Example 22, (3,12b-trans)-2,3-dimethyl-1,2,3,7,8,12b-hexahydrobenzo[6,7]cyclohepta[1,2,3-de]isoquinoline-4,5-diol hydrobromide] | 4.4 ± 2.0 mg/kg, i.p. | 13 ± 10.4 mg/kg, i.p. |  |  | 
6 | Br.CCCC1c2c(O)c(O)cc3c2C(CN1C)c1ccccc1CC3 (stereo not drawn) [Example 24, (3,12b-trans)-2-methyl-3-propyl-1,2,3,7,8,12b-hexahydrobenzo[6,7]cyclohepta[1,2,3-de]isoquinoline-4,5-diol hydrobromide] | 4.4 ± 1.4 mg/kg, i.p. | 11 ± 4.3 mg/kg, i.p. |  |  | 
7 | Br.CC(C)C1c2c(O)c(O)cc3c2C(CN1C)c1ccccc1CC3 (stereo not drawn) [Example 25, (3,12b-trans)-2-methyl-3-(1-methylethyl)-1,2,3,7,8,12b-hexahydrobenzo[6,7]cyclohepta[1,2,3-de]isoquinoline-4,5-diol hydrobromide] | 2.4 ± 0.6 mg/kg, i.p. | 17.5 ± 6.0 mg/kg, i.p. |  |  | 
8 | Br.CN1CC2c3ccccc3CCc3cc(O)c(O)c(c32)C1Cc1ccccc1 (stereo not drawn) [Example 26, (3,12b-trans)-2-metyl-3-(phenylmethyl)-1,2,3,7,8,12b-hexahydrobenzo[6,7]cyclohepta[1,2,3-de]isoquinoline-4,5-diol hydrobromide] | 1.6 ± 0.3 mg/kg, i.p. | 22 ± 5.7 mg/kg, i.p. |  |  | 
9 | COc1cc2c3c(c1O)C(Cc1ccccc1)N(C)CC3c1ccccc1CC2 (stereo not drawn) [Example 37, (3,12b-trans)-5-Methoxy-2-methyl-3-(phenylmethyl)-1,2,3,7,8,12b-hexahydrobenzo[6,7]-cyclohepta[1,2,3-de]isoquinolin-4-ol] | 5.4 ± 1.8 mg/kg, i.p. | 8.2 ± 2.4 mg/kg, i.p. |  |  | 
10 | CN1CCN(C2=Nc3cc(Cl)ccc3Nc3ccccc32)CC1 [clozapine] |  |  |  |  | have shown this unusual pharmacological profile
